Measured values as given in ChEMBL document CHEMBL5252620, “Introducing Conformational Restraints on 25CN-NBOH: A Selective 5-HT2A Receptor Agonist” (ACS Med Chem Lett, 2023).
Values joined by “and” are separate entries in the source; they are usually repeats but may differ in a detail not shown here. Identical values can stand only once. Active and inactive are the calls of the source. No cut-off for these calls is given here.

Key:
[1] = biological target: T1, 5-hydroxytryptamine receptor 2C (Homo sapiens) (UniProt P28335); assay: Agonist activity at 5-HT2CR (unknown origin) stably expressed in HEK293 cells at 30 to 100 uM measured after 1 hr by fluorescence based Ca2+/Fluo-4 assay; type: cell-based; conditions: filed as agonist, dose 30-100 µM
T1 sequence (whole entry): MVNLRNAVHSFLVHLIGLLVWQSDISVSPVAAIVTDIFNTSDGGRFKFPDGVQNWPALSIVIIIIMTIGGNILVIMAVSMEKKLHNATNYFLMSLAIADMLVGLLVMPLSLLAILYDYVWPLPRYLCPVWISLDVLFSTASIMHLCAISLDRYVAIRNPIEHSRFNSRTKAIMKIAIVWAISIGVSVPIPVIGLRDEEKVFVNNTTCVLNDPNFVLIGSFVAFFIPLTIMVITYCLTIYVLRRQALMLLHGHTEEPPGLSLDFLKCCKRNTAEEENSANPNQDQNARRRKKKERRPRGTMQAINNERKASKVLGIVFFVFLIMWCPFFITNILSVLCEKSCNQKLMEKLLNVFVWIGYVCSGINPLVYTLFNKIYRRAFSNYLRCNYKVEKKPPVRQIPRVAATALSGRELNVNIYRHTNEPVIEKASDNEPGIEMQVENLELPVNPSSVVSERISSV

[2] = biological target: 5-hydroxytryptamine receptor 2A (Homo sapiens, UniProt P28223); assay: Agonist activity at 5-HT2AR (unknown origin) stably expressed in HEK293 cells measured after 1 hr by fluorescence based Ca2+/Fluo-4 assay; type: cell-based
[3] = biological target: T1, 5-hydroxytryptamine receptor 2C (Homo sapiens); assay: Agonist activity at 5-HT2CR (unknown origin) stably expressed in HEK293 cells assessed as maximal response measured after 1 hr by fluorescence based Ca2+/Fluo-4 assay relative to control; type: cell-based; conditions: filed as agonist
[4] = biological target: T2, 5-hydroxytryptamine receptor 2C (Homo sapiens, UniProt P28335)
T2 sequence (P28335 whole entry): T1 sequence (whole entry)
Description: Agonist activity at 5-HT2CR (unknown origin) stably expressed in HEK293 cells measured after 1 hr by fluorescence based Ca2+/Fluo-4 assay

[5] = biological target: T1, 5-hydroxytryptamine receptor 2C (Homo sapiens); assay: Agonist activity at 5-HT2CR (unknown origin) stably expressed in HEK293 cells at 10 to 100 uM measured after 1 hr by fluorescence based Ca2+/Fluo-4 assay; type: cell-based; conditions: filed as agonist, dose 10-100 µM

5-hydroxytryptamine receptor 2A, sequence (P28223 whole entry): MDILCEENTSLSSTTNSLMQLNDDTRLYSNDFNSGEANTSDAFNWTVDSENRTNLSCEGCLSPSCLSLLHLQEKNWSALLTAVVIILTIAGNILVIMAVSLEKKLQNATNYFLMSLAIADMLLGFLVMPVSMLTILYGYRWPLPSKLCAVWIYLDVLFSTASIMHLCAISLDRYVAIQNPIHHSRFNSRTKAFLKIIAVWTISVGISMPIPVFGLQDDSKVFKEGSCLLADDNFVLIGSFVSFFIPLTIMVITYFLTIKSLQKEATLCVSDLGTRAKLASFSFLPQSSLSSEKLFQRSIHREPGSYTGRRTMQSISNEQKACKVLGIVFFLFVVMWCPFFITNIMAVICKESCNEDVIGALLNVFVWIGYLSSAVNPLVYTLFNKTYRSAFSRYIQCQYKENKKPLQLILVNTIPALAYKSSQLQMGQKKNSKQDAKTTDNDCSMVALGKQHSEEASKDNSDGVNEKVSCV

| Compound | Activity [1] | EC50 ([2]; read-out: EC50) | EC50 ([2]; read-out: pEC50 (converted)) | Rmax [3] | EC50 [4] | Activity [5] |
| --- | --- | --- | --- | --- | --- | --- |
| COc1cc(CC2CCCC(c3ccccc3O)N2)c(OC)cc1C#N (centres undefined) | Active | 2700 nM | 3550 nM | – | – | – |
| COc1cc(CCNCc2ccccc2O)c(OC)cc1C#N | – | – | – | 78% | 178 nM and 170 nM | – |
| COc1cc(C[C@H]2CCC[C@H](c3ccccc3O)N2)c(OC)cc1C#N | – | 930 nM | – | – | – | Active |
| COc1cc(C[C@@H]2CCC[C@@H](c3ccccc3O)N2)c(OC)cc1C#N | – | 91 nM | – | – | – | Active |
